Paper PMC3969271, “A Bacterial Homolog of a Eukaryotic Inositol Phosphate Signaling Enzyme Mediates Cross-kingdom Dialog in the Mammalian Gut” (Cell Reports, 2014)

Columns and labels:
BtMinpp [1] = molecular target: T1, BtMinpp (Bacteroides thetaiotaomicron, UniProt Q89YI8); assay: HPLC of […]-labelled products; phosphatase activity; assay type: biochemical; conditions: 1 mM InsP6; 0.25 μg/ml enzyme; labelled compound
T1 construct: gene BT_4744; N-terminal 6xHis fusion, expressed in Escherichia coli
T1 sequence (Q89YI8 21-425): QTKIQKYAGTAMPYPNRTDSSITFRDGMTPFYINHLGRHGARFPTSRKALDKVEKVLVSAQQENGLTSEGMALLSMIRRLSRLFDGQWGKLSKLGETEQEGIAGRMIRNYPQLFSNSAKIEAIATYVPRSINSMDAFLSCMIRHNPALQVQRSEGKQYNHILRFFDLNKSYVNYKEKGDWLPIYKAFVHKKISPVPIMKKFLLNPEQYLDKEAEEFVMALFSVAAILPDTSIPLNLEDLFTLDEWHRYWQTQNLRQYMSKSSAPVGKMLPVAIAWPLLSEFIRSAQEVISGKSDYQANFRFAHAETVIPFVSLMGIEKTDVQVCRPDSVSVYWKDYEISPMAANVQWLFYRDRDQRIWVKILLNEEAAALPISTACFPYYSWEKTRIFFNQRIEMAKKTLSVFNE

BtMinpp [2] = molecular target: T1, BtMinpp; assay: X-ray crystal structure, […] Å; assay type: binding; conditions: active site; nonhydrolysable InsP6 analog

Row | Structure (SMILES) | HPLC of 32P-labelled products; phosphatase activity (BtMinpp [1]) | X-ray crystal structure, 2.42 Å (BtMinpp [2])
1 | O=P(O)(O)O[C@H]1[C@H](OP(=O)(O)O)[C@@H](OP(=O)(O)O)[C@H](OP(=O)(O)O)[C@@H](OP(=O)(O)O)[C@H]1OP(=O)(O)O [InsP6] | confirmed that this protein has InsP6 phosphatase activity (Figure 1A) | –
2 | O=S(=O)(O)O[C@H]1[C@H](OS(=O)(=O)O)[C@@H](OS(=O)(=O)O)[C@H](OS(=O)(=O)O)[C@@H](OS(=O)(=O)O)[C@H]1OS(=O)(=O)O [InsS6, myo-inositol hexakissulfate] | – | myo-inositol hexakissulfate (InsS6), again bound in the active sites of both molecules
